From patent US20050042283A1, “Histamine and CCK2/gastrin receptor blockade in the treatment of acid-peptic disease and cancer” (UNIVERSITY OF MASSACHUSETTS, priority 2003, published 2005)

Legend:
Type in all cases: in vivo
[1] = test system: Helicobacter felis; assay: H. felis infection status (Warthin-Starry staining, IgG ELISA, real-time PCR); conditions: quantitative real-time PCR; n=6
From the text: The insulin-gastrin (INS-GAS) transgenic mice (FVB/N background) have been described previously (Wang, T. C. et al., 2000; Wang T. C. et al., 1993) and were free of specific pathogens. Animals were housed in microisolator, solid-bottomed polycarbonate cages, fed a commercially prepared pelleted diet, and given water ad libitum. One hundred twenty four (124) male INS-GAS mice at 2 or 3 months of age were inoculated with Helicobacter felis (ATCC 49179) as previously described (Wang, T. C. et al., 2000). Infection status was confirmed at 14 weeks and 26 weeks post inoculation by enzyme-linked immunosorbent assay (ELISA) to measure immunoglobulin IgG antibody to H. felis, and by quantitative real-time PCR assays of gastric corpus tissue at necropsy as described below. […]
At necropsy, linear strips extending from the squamocolumnar junction through the proximal duodenum were fixed in 10% neutral-buffered formalin, paraffin-embedded, cut at 5 microns, and stained with hematoxylin and eosin. Indices of injury in the gastric cardia/corpus and antrum were scored on an ordinal scale from 0 to 4 in increments of 0.5 by a single veterinary pathologist (A.B.R.) blinded to treatment groups. […]
Plasma gastrin levels (COOH-terminally amidated gastrin) were determined by radioimmunoassay using rabbit antiserum L2 that reacts similarly with G17 and […]. […]

[2] = test system: TNF-alpha; assay: Real-time RT-PCR of cytokine expression: TNF-alpha; conditions: 6 months, versus untreated mice
Experimental: Real-time RT-PCR assay of growth factors and cytokine expression profiles Total RNAs were extracted from a sample of whole stomach from each animal with Trizol (Invitrogen, Calif.) and five micrograms of total RNA were used for first strand cDNA synthesis using Superscript II cDNA amplification System (Invitrogen, Calif.) following manufacturer's instructions. Real-time PCR was performed as above using RT-PCR primers for each gene as listed below. All primers were designed using Lasergene ver5.0 software (DNASTAR inc., Madison, Wis.). Results were calculated by minus delta delta threshold cycle (-ΔΔCt) method (Livak, K. J. et al., 2001). Briefly, the threshold cycle Ct1 of each sample reaction was deducted from the threshold cycle Ct2 of GAPDH reaction for normalization, and then deducted from the threshold cycle Ct3 of calibration control (45 cycles in this experiment), i.e., the final result was represented by the formula; Ct3-(Ct1-Ct2). […]

[3] = test system: H. felis-infected INS-GAS mice; assay: Gastric mucosa histological evaluation and scoring; conditions: for Corpus histological score: Atrophy / Corpus histological score: Dysplasia / Corpus histological score: Hyperplasia / Corpus histological score: Inflammation: scale 0 to 4, mean ± SD
From the text: The insulin-gastrin (INS-GAS) transgenic mice (FVB/N background) have been described previously (Wang, T. C. et al., 2000; Wang T. C. et al., 1993) and were free of specific pathogens. Animals were housed in microisolator, solid-bottomed polycarbonate cages, fed a commercially prepared pelleted diet, and given water ad libitum. One hundred twenty four (124) male INS-GAS mice at 2 or 3 months of age were inoculated with Helicobacter felis (ATCC 49179) as previously described (Wang, T. C. et al., 2000). Infection status was confirmed at 14 weeks and 26 weeks post inoculation by enzyme-linked immunosorbent assay (ELISA) to measure immunoglobulin IgG antibody to H. felis, and by quantitative real-time PCR assays of gastric corpus tissue at necropsy as described below. All experiments were approved by the Institutional Animal Care and Use Committee of University of Massachusetts Medical School.
Mice in group III were treated orally with the histamine H2 receptor antagonist loxtidine (in drinking water) at a dose of 0.5 g/L, while group IV mice received both drugs. For the 3 months drug study of inhibitory effects on maximal acid secretion, gastric atrophy, hyperplasia and dysplasia, 8 mice were prepared for each group. For the 6 months drug study of inhibitory effects on gastric carcinogenesis, 17 mice were prepared for each group.
The proton pump inhibitor omeprazole was purchased from Sigma (St. Louis Mo.) and dissolved in dimethylsulfoxide (DMSO)/PEG300, a 1:1 mixture at the concentration of 40 mg/ml, and injected intraperitoneally daily at the dose of […] (=350 micromole/kg) for 3 months. Twenty four (24) mice were divided into four groups. Mice in group A were controls treated with vehicle only, whereas group B mice were treated with omeprazole alone. Group C and D mice were treated with combination of omeprazole and YF476 or loxtidine, respectively.
At necropsy, linear strips extending from the squamocolumnar junction through the proximal duodenum were fixed in 10% neutral-buffered formalin, paraffin-embedded, cut at 5 microns, and stained with hematoxylin and eosin. Indices of injury in the gastric cardia/corpus and antrum were scored on an ordinal scale from 0 to 4 in increments of 0.5 by a single veterinary pathologist (A.B.R.) blinded to treatment groups. Paraffin-embedded sections were also stained with the Warthin-Starry silver staining method for detection of H.felis as previously described (Fox, J. G. et al., 2003).

Substance: 1-methyl-5-((3-(3-(1-piperidinylmethyl)phenoxy)propyl)amino)-1H-1,2,4-triazole-3-ethanol [Loxtidine]
- H. felis DNA copy numbers per gastric corpus DNA (copy/μg) compared with non drug treated mice [1]: no significant difference
- TNF-alpha expression level ([2]; listed as Loxtidine alone): significantly lower level
- TNF-alpha expression level ([2]; listed as loxtidine alone): significantly down-regulated
- Histological finding: gastric atrophy, hyperplasia, dysplasia ([3]; 3 months treatment, hematoxylin and eosin): partially blocked
- Histological finding: gastric atrophy, hyperplasia, dysplasia ([3]; 3 months treatment, hematoxylin and eosin, listed as loxtidine): partial inhibition of gastric atrophy and foveolar hyperplasia
- Histological finding: gastric atrophy, hyperplasia, dysplasia ([3]; 3 months treatment, hematoxylin and eosin, listed as loxtidine alone): slight inhibition of Helicobacter-mediated gastric atrophy
- Corpus histological score: Atrophy ([3]; 3 months treatment, n = 4): 1.83 ± 0.29
- Corpus histological score: Dysplasia ([3]; 3 months treatment, n = 4): 1.00 ± 0.50
- Corpus histological score: Hyperplasia ([3]; 3 months treatment, n = 4): 1.33 ± 0.58
- Corpus histological score: Inflammation ([3]; 3 months treatment, n = 4): 1.83 ± 0.29
- Histological finding: gastric neoplasia / carcinogenesis ([3]; 6 months treatment, hematoxylin and eosin): partial inhibition of progression to neoplasia
- Corpus histological score: Atrophy ([3]; 6 months treatment, n = 5): 2.67 ± 0.61
- Corpus histological score: Dysplasia ([3]; 6 months treatment, n = 5): 2.17 ± 1.29a
- Corpus histological score: Hyperplasia ([3]; 6 months treatment, n = 5): 2.42 ± 1.07a
- Corpus histological score: Inflammation ([3]; 6 months treatment, n = 5): 2.33 ± 1.17
